US20260013505A1, “Herbicidal Compositions Comprising Diclosulam” (BASF SE, priority 2024, published 2026)

Legend:
Type in all cases: in vivo
Ipomoea triloba = assay: Example 1 post-emergence field trial, IPOTR; conditions: 14 DAT, growth stage 35
Experimental: (§1) In the examples below, using the method of S. R. Colby (1967) “Calculating synergistic and antagonistic responses of herbicide combinations”, Weeds 15, p. 22ff., the value E, which is expected if the activity of the individual active compounds is only additive, was calculated:
(§2) [formula] • where • X=percent activity using active herbicide A at an application rate a; • Y=percent activity using active herbicide B (e.g. diclosulam) at an application rate b; • E=expected activity (in %) by A+B at application rates a+b.
(§3) If the value found experimentally is higher than the value E calculated according to Colby, a synergistic effect is present.
(§4) On field test sites, natural weed infestation or seeded weeds were treated post-emergence of the weeds.
(§5) In the field trials, the weeds were treated as indicated below.
(§6) In the following experiments, the herbicidal activity for the individual herbicidal compositions (solo and mixture applications) was assessed at the indicated days after treatment (DAT). The assessments for the damage on undesired weeds caused by the composition was carried out using a scale from 0 to 100%, compared to the untreated control plants. Here, 0 means no damage and 100 means complete destruction of the plants. […]

Amaranthus viridis = assay: Example 2 post-emergence field trial, AMAVI; conditions: 21 DAT, growth stage 16-18
Experimental: as §1, §2, §3, §4, §5, §6

Cenchrus echinatus = assay: Example 1 post-emergence field trial, CCHEC; conditions: B solo 30 g ai/ha, 14 DAT, growth stage 18-31
Experimental: as §1, §2, §3, §4, §5, §6

Portulaca oleracea = assay: Example 2 post-emergence field trial, POROL; conditions: B solo 30 g ai/ha, 21 DAT, growth stage 14-16
Experimental: as §1, §2, §3, §4, §5, §6

Euphorbia heterophylla = assay: Example 1 post-emergence field trial, EPHHL; conditions: B solo 30 g ai/ha, 14 DAT, growth stage 35
Experimental: as §1, §2, §3, §4, §5, §6

Sorghum vulgare = assay: Example 2 post-emergence field trial, SORVU; conditions: B solo 30 g ai/ha, 14 DAT, growth stage 14-15
Experimental: as §1, §2, §3, §4, §5, §6

Digitaria horizontalis = assay: Example 1 post-emergence field trial, DIGHO; conditions: B solo 30 g ai/ha, 14 DAT, growth stage 18-31
Experimental: as §1, §2, §3, §4, §5, §6

Brachiaria plantaginea = assay: Example 1 post-emergence field trial, BRAPL; conditions: B solo 30 g ai/ha, 14 DAT, growth stage 21-25
Experimental: as §1, §2, §3, §4, §5, §6

Eleusine indica [1] = assay: Example 2 post-emergence field trial, ELEIN; conditions: B solo 30 g ai/ha, 21 DAT, growth stage 21-25
Experimental: as §1, §2, §3, §4, §5, §6

Amaranthus hybridus = assay: Example 1 post-emergence field trial, AMACH; conditions: B solo 30 g ai/ha, 14 DAT, growth stage 35
Experimental: as §1, §2, §3, §4, §5, §6

Eleusine indica [2] = assay: Example 1 post-emergence field trial, ELEIN; conditions: B solo 30 g ai/ha, 14 DAT, growth stage 18-31
Experimental: as §1, §2, §3, §4, §5, §6

SMILES: CCOC(=O)COc1ccccc1Oc1nc(-n2c(=O)cc(C(F)(F)F)n(C)c2=O)c(F)cc1Cl [A-1, ethyl 2-[2-[[3-chloro-5-fluoro-6-[3-methyl-2,6-dioxo-4-(trifluoromethyl)pyrimidin-1-yl]-2-pyridyl]oxy]phenoxy]acetate]
- % herbicidal activity (Ipomoea triloba; A-1 solo 25 g ai/ha): 61%
- % herbicidal activity (Amaranthus viridis; A-1 solo 25 g ai/ha): 69%

SMILES: CCOc1nc(F)cc2nc(S(=O)(=O)Nc3c(Cl)cccc3Cl)nn12 [B, diclosulam]
- % herbicidal activity (Cenchrus echinatus): 20%
- % herbicidal activity (Portulaca oleracea): 58%
- % herbicidal activity (Euphorbia heterophylla): 16%
- % herbicidal activity (Sorghum vulgare): 32%
- % herbicidal activity (Digitaria horizontalis): 0%
- % herbicidal activity (Brachiaria plantaginea): 3%
- % herbicidal activity (Ipomoea triloba; B solo 30 g ai/ha): 17%
- % herbicidal activity (Amaranthus viridis; B solo 30 g ai/ha): 65%
- % herbicidal activity (Eleusine indica [1]): 0%
- % herbicidal activity (Amaranthus hybridus): 22%
- % herbicidal activity (Eleusine indica [2]): 0%
